Values joined by “and” are separate entries in the source; they are usually repeats but may differ in a detail not shown here. Equal entries are not always repeated.
Columns and labels:
Format in all cases: cell-based
psychrotrophic organisms [1] = assay: Growth of psychrotrophic microorganisms in sectioned and formed ham (Example 6); conditions: 0.4% by weight phosphate in cooked ham; after 8 weeks storage at 0° C.; no phosphate: 3.97; listed as Sodium tripolyphosphate (pH about 9.8)
Protocol: Seven batches 40-pound (about 18.2 Kg) of cooked sectioned and formed boneless ham were manufactured to meet the following specifications: moisture, 71.2-73.7%; protein, 18.1-19.8%; fat, 3.66-6.31%; salt, 2.0%; and phosphate, 0.4%. The hams were manufactured to conform to the standards of identity for a cooked ham with a minimum of 18.5% protein fat free (PFF). The phosphate salts (0.4% by weight) indicated in Table 6 were added to six of the hams. […] After injection, the hams were vacuum-tumbled for 45 min, stuffed into 6.5-in (about 16.5 cm) diameter fibrous casings, and then cooked to an internal temperature of 71.1° C. Cooked hams were chilled for 8 hr at 0° C., vacuum packaged, and stored at 0° C. for 8 weeks. Sample homogenate was prepared by blending 11 g of ham with 99 mL of sterile 0.1% peptone diluent and agitating for 1 min in a stomacher. Serial dilutions were prepared by transferring 1.0 mL aliquots of the sample diluent to 9 mL of sterile 0.1% peptone. The appropriate dilutions were plated on plate count agar. The plates were incubated at 7° C. for 10 days.

psychrotrophic organisms [2] = assay: Growth of psychrotrophic microorganisms in sectioned and formed ham (Example 7); conditions: after 8 weeks storage at 1.11° C., no phosphate: 7.79
Protocol: (§1) Five 16 Kg batches of restructured ham were prepared. Fresh whole pork hams were skinned, boned, sectioned into muscles, and each muscle trimmed to remove all trimmable connective tissue and subcutaneous and intramuscular fat. […] The pumped muscles were macerated manually to facilitate brine absorption; tumbled; and stuffed into fibrous casings in 908.0 g chubs. The hams were weighed and then cooked to 71.1° C. internal temperature. Cooked hams were chilled for 24 hr at 0° C., vacuum packaged, and stored at 1.11° C. for 8 weeks. Sample homogenate was prepared by blending 11 g of ham with 99 mL of sterile 0.1% peptone diluent and agitating for 1 min in a stomacher. Serial dilutions were prepared by transferring 1.0 mL aliquots of the sample diluent to 9 mL of sterile 0.1% peptone. […] Duplicate samples were analyzed for each treatment.

lactic acid organisms = assay: Growth of lactic acid organisms in sectioned and formed ham (Example 7); conditions: after 8 weeks storage at 1.11° C., no phosphate: 7.42
Protocol: as §1

aerobic plate count = assay: Aerobic plate count in sectioned and formed ham (Example 7); conditions: after 8 weeks storage at 1.11° C., no phosphate: 6.03
Protocol: as §1

SMILES	log (colony forming units)/g (psychrotrophic organisms [1])	log (colony forming units)/g (psychrotrophic organisms [2]; 0.4% phosphate in ham)	log (colony forming units)/g (psychrotrophic organisms [2]; 1.0% phosphate in ham)	log (colony forming units)/g (lactic acid organisms; 0.4% phosphate in ham)	log (colony forming units)/g (lactic acid organisms; 1.0% phosphate in ham)	log (colony forming units)/g (aerobic plate count; 0.4% phosphate in ham)	log (colony forming units)/g (aerobic plate count; 1.0% phosphate in ham)
O=P(O)(O)OP(=O)(O)OP(=O)(O)O [Sodium tripolyphosphate]	1.58 log (colony forming units)/g and 1.84 log (colony forming units)/g	7.8 log (colony forming units)/g	5.91 log (colony forming units)/g	6.62 log (colony forming units)/g	6.70 log (colony forming units)/g	6.69 log (colony forming units)/g	5.67 log (colony forming units)/g
O=P([O-])(O)OP(=O)([O-])O.[Na+].[Na+] [Sodium acid pyrophosphate]			5.28 log (colony forming units)/g		5.38 log (colony forming units)/g		4.49 log (colony forming units)/g
O=P1([O-])OP(=O)([O-])OP(=O)([O-])OP(=O)([O-])OP(=O)([O-])OP(=O)([O-])O1.[Na+].[Na+].[Na+].[Na+].[Na+].[Na+] [Sodium hexametaphosphate]			4.62 log (colony forming units)/g		6.24 log (colony forming units)/g		4.55 log (colony forming units)/g

— patent US6509050B1, “Use of antimicrobial polyphosphates in food processing” (Astaris LLC, priority 1999, dated 2003)
